System: patients with gout and a history of major cardiovascular diseases
Test: eGFR over time by average serum uric acid concentration, analysis of clinical trial data
Type: in vivo, human
Conditions: febuxostat group
Procedure: In order to evaluate non-inferiority of febuxostat to allopurinol related to cardiovascular risk, a clinical trial was designed and proceeded.
A multicenter, randomized, double-blind non-inferiority trial was performed. The details of the clinical trial design have been published previously. An independent data and safety monitoring committee with access to unblinded data monitored the clinical trial. The statistical analysis for the data and the safety monitoring committee was performed by an independent statistical group (WebbWrites).
The patients were regarded as having a history of major cardiovascular diseases, if they had myocardial infarction, hospitalization for unstable angina, stroke, hospitalization for transient ischemic attack, peripheral vascular disease, or diabetes mellitus symptoms. All participants provided a prior informed consent form.
The patients were randomly assigned so that they received febuxostat or allopurinol administered once a day in a double-blind manner. The randomization was stratified according to the estimated creatinine clearance at baseline (patient group having an estimated creatinine clearance ≥60 ml per minute vs patient group having an estimated creatinine clearance ≥30 and <60 ml per minute).
The dose of allopurinol was modified according to a kidney function. The patients with the estimated creatinine clearance 60 ml or more per minute i) initially received allopurinol at a dose of 300 mg once a day, and the dose was increased in 100 mg increments monthly until the patient had the serum uric acid concentration of less than 6.0 mg per deciliter or the dosage of allopurinol was 600 mg once a day. The patient having the estimated creatinine clearance of 30 ml or more and less than 60 ml per minute initially received 200 mg of allopurinol, and then the dose was increased in 100 mg increments until the patient either had the serum uric acid concentration of less than 6.0 mg per deciliter or was receiving the allopurinol dose of 400 mg once daily.
The dose of febuxostat was not modified according to the kidney function. The patients who were randomly assigned to receive febuxostat initially received 40 mg once a daily, and continued to receive the same dosage if the serum uric acid concentration was less than 6.0 mg per deciliter after 2 weeks of the treatment. If the serum uric acid concentration was higher than 6.0 mg per deciliter at 2nd week visit, the dose of febuxostat was increased to 80 mg once daily for the remainder of the trial.
During the period, the administration of a double-blind and double-dummy trial medications was guided by an interactive voice-response system which was a procedure to prevent unblinding for the patients whose dose was not adjusted. After completing dose adjustment, the urate level was concealed from the investigators, and the treatment was managed throughout the trial using the interactive voice-response system.
Outpatient visits were conducted according to the following schedule: during screening and randomization, and at 2, 4, 6, 8, 10, 12, and 24 weeks after the randomization, and every 6 months during the subsequent years of the trial. The patients with reduced kidney function or, the patients aged 65 years or older at randomization were visited at 9 and 15 months for monitoring the serum chemical profile. If the patient agreed to be monitored, but would not return for study visit, telephone contact was made, but such method was not preferred or recommended.
In order to confirm the effect of allopurinol and febuxostat on the kidney disease, the data obtained in the clinical trial described above was analyzed.

In the case of `Cc1nc(-c2ccc(OCC(C)C)c(C#N)c2)sc1C(=O)O` [febuxostat], the “eGFR Mean (95% CI)” value (DBP <80, Average UA <6, Month 3) was 61.85 (60.63-63.08) ml/min/1.73 m^2, the “eGFR Mean (95% CI)” value (DBP <80, Average UA <6, Month 6) was 61.84 (60.56-63.11) ml/min/1.73 m^2 and the “eGFR Mean (95% CI)” value (DBP <80, Average UA <6, Month 12) was 63.06 (61.79-64.33) ml/min/1.73 m^2. For the same molecule, the “eGFR Mean (95% CI)” value (DBP <80, Average UA <6, Month 18) was 63.11 (61.75-64.47) ml/min/1.73 m^2, the “eGFR Mean (95% CI)” value (DBP <80, Average UA <6, Month 24) was 63.79 (62.31-65.27) ml/min/1.73 m^2 and the “eGFR Mean (95% CI)” value (DBP <80, Average UA <6, Month 30) was 63.51 (61.89-65.13) ml/min/1.73 m^2. For the same molecule, the “eGFR Mean (95% CI)” value (DBP <80, Average UA <6, Month 36) was 64.28 (62.56-66.00) ml/min/1.73 m^2, the “eGFR Mean (95% CI)” value (DBP <80, Average UA <6, Month 42) was 64.43 (62.50-66.35) ml/min/1.73 m^2 and the “eGFR Mean (95% CI)” value (DBP <80, Average UA <6, Month 48) was 65.60 (63.48-67.72) ml/min/1.73 m^2. The “eGFR Mean (95% CI)” value (DBP <80, Average UA <6, Month 54) was 65.70 (63.39-68.00) ml/min/1.73 m^2, the “eGFR Mean (95% CI)” value (DBP <80, Average UA <6, Month 60) was 66.92 (64.25-69.59) ml/min/1.73 m^2 and the “eGFR Mean (95% CI)” value (DBP <80, Average UA <6, Week 2) was 62.06 (60.81-63.31) ml/min/1.73 m^2. The “eGFR Mean (95% CI)” value (DBP <80, Average UA ≥6, Baseline) was 62.08 (59.70-64.45) ml/min/1.73 m^2, the “eGFR Mean (95% CI)” value (DBP <80, Average UA ≥6, Month 3) was 61.44 (58.99-63.89) ml/min/1.73 m^2 and the “eGFR Mean (95% CI)” value (DBP <80, Average UA ≥6, Month 6) was 61.49 (59.02-63.95) ml/min/1.73 m^2. The “eGFR Mean (95% CI)” value (DBP <80, Average UA ≥6, Month 12) was 60.74 (58.06-63.41) ml/min/1.73 m^2, the “eGFR Mean (95% CI)” value (DBP <80, Average UA ≥6, Month 18) was 60.18 (57.20-63.15) ml/min/1.73 m^2 and the “eGFR Mean (95% CI)” value (DBP <80, Average UA ≥6, Month 24) was 60.32 (57.11-63.53) ml/min/1.73 m^2. For the same molecule, the “eGFR Mean (95% CI)” value (DBP <80, Average UA ≥6, Month 30) was 59.54 (55.89-63.19) ml/min/1.73 m^2, the “eGFR Mean (95% CI)” value (DBP <80, Average UA ≥6, Month 36) was 60.26 (56.16-64.37) ml/min/1.73 m^2 and the “eGFR Mean (95% CI)” value (DBP <80, Average UA ≥6, Month 42) was 59.55 (55.09-64.02) ml/min/1.73 m^2. The “eGFR Mean (95% CI)” value (DBP <80, Average UA ≥6, Month 48) was 59.84 (55.23-64.46) ml/min/1.73 m^2, the “eGFR Mean (95% CI)” value (DBP <80, Average UA ≥6, Month 54) was 60.35 (55.08-65.62) ml/min/1.73 m^2 and the “eGFR Mean (95% CI)” value (DBP <80, Average UA ≥6, Month 60) was 60.01 (53.34-66.68) ml/min/1.73 m^2. For the same molecule, the “eGFR Mean (95% CI)” value (DBP <80, Average UA ≥6, Week 2) was 62.00 (59.39-64.62) ml/min/1.73 m^2, the “eGFR Mean (95% CI)” value (SBP <130, Average UA <6, Baseline) was 64.76 (63.32-66.20) ml/min/1.73 m^2 and the “eGFR Mean (95% CI)” value (SBP <130, Average UA <6, Month 3) was 64.67 (63.21-66.12) ml/min/1.73 m^2. For the same molecule, the “eGFR Mean (95% CI)” value (SBP <130, Average UA <6, Month 6) was 64.87 (63.38-66.36) ml/min/1.73 m^2, the “eGFR Mean (95% CI)” value (SBP <130, Average UA <6, Month 12) was 66.06 (64.55-67.57) ml/min/1.73 m^2 and the “eGFR Mean (95% CI)” value (SBP <130, Average UA <6, Month 18) was 66.18 (64.56-67.79) ml/min/1.73 m^2. The “eGFR Mean (95% CI)” value (SBP <130, Average UA <6, Month 24) was 66.12 (64.42-67.83) ml/min/1.73 m^2, the “eGFR Mean (95% CI)” value (SBP <130, Average UA <6, Month 30) was 66.59 (64.74-68.44) ml/min/1.73 m^2 and the “eGFR Mean (95% CI)” value (SBP <130, Average UA <6, Month 36) was 67.47 (65.55-69.39) ml/min/1.73 m^2. For the same molecule, the “eGFR Mean (95% CI)” value (SBP <130, Average UA <6, Month 42) was 66.93 (64.77-69.08) ml/min/1.73 m^2, the “eGFR Mean (95% CI)” value (SBP <130, Average UA <6, Month 48) was 68.21 (65.88-70.54) ml/min/1.73 m^2 and the “eGFR Mean (95% CI)” value (SBP <130, Average UA <6, Month 54) was 68.62 (66.03-71.22) ml/min/1.73 m^2. The “eGFR Mean (95% CI)” value (SBP <130, Average UA <6, Month 60) was 69.36 (66.42-72.30) ml/min/1.73 m^2, the “eGFR Mean (95% CI)” value (SBP <130, Average UA <6, Week 2) was 65.16 (63.69-66.63) ml/min/1.73 m^2 and the “eGFR Mean (95% CI)” value (SBP <130, Average UA ≥6, Baseline) was 65.83 (63.23-68.44) ml/min/1.73 m^2. The “eGFR Mean (95% CI)” value (SBP <130, Average UA ≥6, Month 3) was 65.54 (62.88-68.20) ml/min/1.73 m^2, the “eGFR Mean (95% CI)” value (SBP <130, Average UA ≥6, Month 6) was 65.87 (63.30-68.43) ml/min/1.73 m^2 and the “eGFR Mean (95% CI)” value (SBP <130, Average UA ≥6, Month 12) was 65.19 (62.39-67.99) ml/min/1.73 m^2. For the same molecule, the “eGFR Mean (95% CI)” value (SBP <130, Average UA ≥6, Month 18) was 63.60 (60.49-66.71) ml/min/1.73 m^2, the “eGFR Mean (95% CI)” value (SBP <130, Average UA ≥6, Month 24) was 62.90 (59.50-66.30) ml/min/1.73 m^2 and the “eGFR Mean (95% CI)” value (SBP <130, Average UA ≥6, Month 30) was 62.62 (58.76-66.48) ml/min/1.73 m^2. For the same molecule, the “eGFR Mean (95% CI)” value (SBP <130, Average UA ≥6, Month 36) was 65.24 (60.84-69.64) ml/min/1.73 m^2, the “eGFR Mean (95% CI)” value (SBP <130, Average UA ≥6, Month 42) was 65.47 (60.56-70.39) ml/min/1.73 m^2 and the “eGFR Mean (95% CI)” value (SBP <130, Average UA ≥6, Month 48) was 64.82 (59.40-70.23) ml/min/1.73 m^2. For the same molecule, the “eGFR Mean (95% CI)” value (SBP <130, Average UA ≥6, Month 54) was 65.92 (59.74-72.11) ml/min/1.73 m^2, the “eGFR Mean (95% CI)” value (SBP <130, Average UA ≥6, Month 60) was 64.71 (57.42-72.01) ml/min/1.73 m^2 and the “eGFR Mean (95% CI)” value (SBP <130, Average UA ≥6, Week 2) was 65.59 (62.82-68.36) ml/min/1.73 m^2.

Reference: patent US20250152592A1, “PHARMACEUTICAL COMPOSITION COMPRISING ALLOPURINOL, FEBUXOSTAT OR PHARMACEUTICALLY ACCEPTABLE SALT THEREOF FOR PREVENTION OR TREATMENT OF CHRONIC KIDNEY DISEASE IN SUBJECT HAVING HIGH SERUM URIC ACID CONCENTRATION” (Indream Healthcare Inc., priority 2022, published 2025)
